# Laboratory results from PMC12314051, “Design, antiproliferative potency, and in silico studies of novel 5-methylfuran-3-yl)thio)-3-phenylquinazolin-4(3H)-one based derivatives as potential EGFR inhibitors” (Scientific Reports, 2025).
# Where “and” joins values, the source holds several entries; their conditions need not be identical. Equal entries are not always repeated. Where two headings read alike, the source gives them in different places.
# Key:
# [1] = tested on: HCT-116 cells; assay: MTT cytotoxicity assay, HCT-116; type: cell-based; details: Homo sapiens; HCT-116, MTT assay; read-out: IC50 (mean ± SD)
# Description: (§1) Following the published protocol[75]–[77], the cytotoxic effects of the newly synthesized quinazolinones 1–10 were assessed in vitro using the MTT test method on human liver HepG-2, breast MCF-7, colorectal HCT-116 cancer cell lines, and normal diploid cell line WI-38. There were further details in the supplemetary file.
# (§2) The cell lines were obtained from Karolinska Center, Department of Oncology and Pathology, Karolinska Institute and Hospital, Stockholm, Sweden, as follows: human liver HepG-2, breast MCF-7, and colorectal HCT-116 cancer cell lines and human diploid cell line WI-38. Exponentially, cells were placed in 10^4 cells/ well for 24 h, and then fresh medium containing different concentrations of the tested sample. two-fold serial dilution of the tested sample was added using a multichannel pipette. Moreover, all cells were cultivated at 37 °C, 5% CO2 and 95% humidity. Also, incubation of control cells occurred at 37 °C. However, after incubation for 24 h different concentrations of the sample (100, 50, 25, 12.5, 6.25, 3.125, and 1.56 µM) were added, and continued the incubation for 48 h, then, add the crystal violet solution of 1% to each well for 0.5 h to examine viable cells. Rinse the wells using water until no stain. After that, add 30% glacial acetic acid to all wells with shaking plates on a Microplate reader (TECAN, Inc.) to measure the absorbance, using a test wavelength of 490 nm. Besides, compare the treated samples with the control cell. The cytotoxicity was estimated by IC50 in (μM), the concentration that inhibits 50% of growth of cancer cell.
# [2] = tested on: MCF-7 cells; assay: MTT cytotoxicity assay, MCF-7; type: cell-based; details: Homo sapiens, MCF7; MCF-7, MTT assay; read-out: IC50 (mean ± SD)
# Description: as §1, §2
# [3] = tested on: WI-38 cells; assay: MTT cytotoxicity assay, normal WI-38; type: cell-based; details: Homo sapiens; normal WI-38, MTT assay; read-out: IC50 (mean ± SD)
# Description: . […]. Furthermore, the MTT assay was employed to examine the safety profiles of the cytotoxic activity against the normal human diploid cell line WI-38 (Table 1). […]. They could therefore be considered safe chemotherapeutic agents.
# as §1, §2
# [4] = molecular target: T1, EGFR (Homo sapiens, UniProt P00533); assay: In vitro EGFR inhibition assay; type: biochemical; details: for IC50: EGFR, read-out: IC50 (mean ± SD); for selectivity EGFR over VEGFR-2: EGFR versus VEGFR-2
# T1 construct: purchased Abcam
# [5] = tested on: HepG-2, HCT-116 and MCF-7 cell lines; assay: MTT cytotoxicity, all screened cancer cell lines together (SAR summary); type: cell-based, human
# Description: […]. In addition, replacement of acetyl group in 2 with pyrazoline moiety with free N-1 in 7 or bound to thiazole in 9, yielded weak activity.
# as §1, §2
# [6] = molecular target: T2, VEGFR-2 (Homo sapiens, UniProt P35968); assay: In vitro VEGFR-2 inhibition assay (ELISA kit); type: biochemical; details: read-out: IC50 (mean ± SD)
# T2 construct: purchased Ray Biotech
# Description: Quinazolinone-based targets 1, 6b, 8a, and 10 were chosen for further evaluation of their in vitro inhibitory activity against EGFR and VEGFR-2 because of their exceptional cytotoxic outcomes, with the goal of clarifying their mode of action. […]. VEGFR-2 assay: the effect of the most promising cytotoxic compounds 1, 6b, 8a, and 10 was evaluated for their in vitro inhibitory activity against Human VEGFR-2 using ELISA kit according to manufacturer's instructions (Ray Biotech). This assay employs an antibody specific for human VEGFR-2 coated on a 96-well plate. Samples and standards were added to the wells and incubated over night at 4 °C with gentle shaking. The wells were washed and biotinylated antibody was added followed by incubation for one hour at room temperature. After washing away unbound biotinylated antibody, HRP conjugated streptavidin was pipetted to the wells and
# incubated at room temperature for 45 min. The wells were then washed; TMB substrate solution was added and incubated for 30 min. The color developed was in proportion to the amount of VEGFR-2 bound. The Stop Solution was added and the intensity of the color was measured at 450 nm. Percent inhibition was calculated by the comparison of compounds treated to control incubations. […]
# [7] = tested on: HepG-2 cells; assay: MTT cytotoxicity assay, HepG-2; type: cell-based; details: Homo sapiens, HepG2; HepG-2, MTT assay; read-out: IC50 (mean ± SD)
# Description: as §1, §2
# [8] = tested on: MCF-7 cells; assay: Apoptosis detection, annexin V-FITC/PI flow cytometry; type: cell-based, human
# Description: (§3) The treated cells were subsequently analyzed using flow cytometry and annexin-V labeling (Fig. 4, 5, 6).
# (§4) Using flow cytometry, the investigation of cell cycle analysis and apoptosis was described[79],[81]. After applying quinazolinone-furan-benzo[b][1,4]diazepine 6b to MCF-7 cells for 24 h, the cells were incubated at 37 °C. The supplemental file contained more information.
# (§5) Cell cycle analysis and apoptosis study were carried out using ab139418–Propidium Iodide Flow Cytometry Kit for Cell Cycle Analysis. MCF-7 cells were seeded at 8×10^4 and incubated at 37°C in 5% CO2 overnight. After treatment with the tested compound 10 for 24 h, cell pellets were collected and centrifuged (300 g, 5 min). For cell cycle analysis, cell pellets were fixed with 70% ethanol on ice for 15 min and collected again. The pellets were incubated with propidium iodide (PI) staining solution at room temperature for 1 h and analyzed by a Gallios flow cytometer (Beckman Coulter, Brea, CA, USA). Apoptosis detection was carried out by FITC AnnexinV/PI commercial kit (Becton Dickenson, Franklin Lakes, NJ, USA) following the manufacturer protocol. The samples were analyzed by fluorescence-activated cell sorting (FACS) with a Gallios flow cytometer (Beckman Coulter, Brea, CA, USA) within 1 h after staining. Data were analyzed using Kaluza v 1.2 (Beckman Coulter).
# [9] = tested on: Bax; assay: Bax level in MCF-7 cells; type: cell-based, human; details: MCF-7, 3.91 μM, 24 h
# Source text: (§6) The extrinsic pathway, which is controlled by the death receptor, and the intrinsic pathway, which is handled by the mitochondria, are the two primary mechanisms that govern the cell during apoptosis. The two proteins Bcl-2 and Bax can alter this planned process due to their respective roles as […] (inducer), and the balance between them adjusts cell death. A further vital component that either causes cell death or prevents cell proliferation is the tumor suppressor gene, p53. […] Furthermore, compound 6b increased the amount of p53 protein in MCF-7 treated cells by 7.2 times, while control cells only had 119.65 Pg/mL (Table 3).
# (§7) For the promising quinazolinone-furan-benzo[b][1,4]diazepine 6b, the Bax, Bcl-2, and p53 levels in MCF-7 cells were elucidated using the previously disclosed method.
# The magnitudes of the apoptotic proteins; BAX and Bcl-2 were evaluated using BIORAD iScript TM One-Step RT-PCR kit with SYBR®Green (BIO-RAD Laboratories, Hercules, CA, US). The method of the applied kit was conducted according to the manufacturer’s protocol and previously reported method. First, mRNA isolation is done using RNeasy extraction kit, up to 1 × 10^7 cells, depending on the cell line. Then Cells were exposed to RNeasy Lysis Buffer (RLT buffer) and homogenized, while ethanol was then supplemented to the mixture to allow selective binding of RNA to the RNeasy membrane. Afterwards, the sample was loaded to the RNeasy mini spin column where total RNA was bound to the membrane while contaminants competently passed through, and high-quality RNA was eluted in RNase-free water. Then, the reaction mixture was incubated in a real-time thermal detection system (Rotorgene) as follows: cDNA synthesis: 10 min at 50 ◦C, iScript reverse transcriptase inactivation: 5 min at 95 ◦C, polymerase chain reaction (PCR) cycling and detection (30–45 cycles): 10s at 95 ^◦C and 30 s at 55 ^◦C to 60 ^◦C (data collection step) and melt curve analysis: 1 min at 95 ◦C and 1 min at 55 ^◦C and 10s at 55 ^◦C (80 cycles, increasing each by 0.5 ^◦C each cycle).
# [10] = tested on: p53; assay: p53 level in MCF-7 cells (ELISA); type: cell-based, human; details: MCF-7, 3.91 μM, 24 h
# Source text: as §6, §7
# Human p53 present in MCF-7 cells was determined; using Human p53 ELISA-Kit (CS0070 Sigma) read using spectrophotometer at 450 nm against untreated control cells (negative control) applying the standard protocols of the manufacturers. The samples or standard having human p53 bind to antibodies adsorbed to the microwells. Addition of biotin-conjugated was followed by incubation and addition of dispense of unbound biotin-conjugated streptavidin HRP. Then, the reaction was terminated by adding acid, and the absorbance was measured at 450 nm.
# [11] = tested on: MCF-7 cells; assay: Cell cycle analysis by flow cytometry (PI); type: cell-based, human; details: MCF-7, 3.91 μM, 24 h
# Description: as §3, §4, §5
# [12] = tested on: Bcl-2; assay: Bcl-2 level in MCF-7 cells; type: cell-based, human; details: MCF-7, 3.91 μM, 24 h
# Source text: as §6, §7
# The magnitudes of the apoptotic proteins; BAX and Bcl-2 were evaluated using BIORAD iScript TM One-Step RT-PCR kit with SYBR®Green (BIO-RAD Laboratories, Hercules, CA, US). The method of the applied kit was conducted according to the manufacturer’s protocol and previously reported method. First, mRNA isolation is done using RNeasy extraction kit, up to 1 × 10^7 cells, depending on the cell line. Then Cells were exposed to RNeasy Lysis Buffer (RLT buffer) and homogenized, while ethanol was then supplemented to the mixture to allow selective binding of RNA to the RNeasy membrane. […]
# [13] = HepG-2, HCT-116 and MCF-7 cell lines
# T2 sequence (P35968 20-1356): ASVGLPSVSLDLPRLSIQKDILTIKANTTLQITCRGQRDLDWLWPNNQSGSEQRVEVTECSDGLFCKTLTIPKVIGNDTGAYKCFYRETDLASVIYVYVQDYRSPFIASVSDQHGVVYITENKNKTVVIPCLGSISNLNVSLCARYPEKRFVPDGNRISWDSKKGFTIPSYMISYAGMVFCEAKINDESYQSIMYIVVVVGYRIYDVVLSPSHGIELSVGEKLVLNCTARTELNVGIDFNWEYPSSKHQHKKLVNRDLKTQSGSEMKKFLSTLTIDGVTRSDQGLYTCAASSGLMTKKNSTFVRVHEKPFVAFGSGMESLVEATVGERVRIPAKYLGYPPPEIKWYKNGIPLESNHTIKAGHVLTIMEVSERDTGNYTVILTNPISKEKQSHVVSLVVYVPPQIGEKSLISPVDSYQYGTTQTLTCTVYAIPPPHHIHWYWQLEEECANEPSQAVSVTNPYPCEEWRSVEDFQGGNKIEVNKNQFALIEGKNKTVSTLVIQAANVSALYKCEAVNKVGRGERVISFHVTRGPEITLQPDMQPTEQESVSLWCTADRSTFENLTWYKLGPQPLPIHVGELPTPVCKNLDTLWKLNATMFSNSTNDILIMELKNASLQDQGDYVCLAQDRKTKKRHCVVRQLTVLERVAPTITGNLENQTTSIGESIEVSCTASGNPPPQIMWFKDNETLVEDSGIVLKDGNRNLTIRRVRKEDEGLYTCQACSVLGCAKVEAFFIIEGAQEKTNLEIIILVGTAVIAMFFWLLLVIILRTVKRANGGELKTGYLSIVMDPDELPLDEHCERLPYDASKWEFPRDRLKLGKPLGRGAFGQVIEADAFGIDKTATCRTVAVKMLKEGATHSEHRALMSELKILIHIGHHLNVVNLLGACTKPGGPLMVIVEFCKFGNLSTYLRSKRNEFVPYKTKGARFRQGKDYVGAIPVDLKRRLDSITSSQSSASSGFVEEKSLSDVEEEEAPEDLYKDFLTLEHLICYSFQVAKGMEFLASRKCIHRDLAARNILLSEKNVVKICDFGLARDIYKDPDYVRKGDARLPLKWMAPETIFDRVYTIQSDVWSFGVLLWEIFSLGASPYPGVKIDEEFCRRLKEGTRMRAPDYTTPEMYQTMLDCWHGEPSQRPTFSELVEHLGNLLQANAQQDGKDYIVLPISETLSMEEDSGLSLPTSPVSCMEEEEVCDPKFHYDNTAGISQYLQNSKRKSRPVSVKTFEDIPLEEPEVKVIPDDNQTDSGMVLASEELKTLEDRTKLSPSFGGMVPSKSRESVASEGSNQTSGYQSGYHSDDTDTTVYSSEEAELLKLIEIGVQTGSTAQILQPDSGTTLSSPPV
# T1 sequence (P00533 25-1210): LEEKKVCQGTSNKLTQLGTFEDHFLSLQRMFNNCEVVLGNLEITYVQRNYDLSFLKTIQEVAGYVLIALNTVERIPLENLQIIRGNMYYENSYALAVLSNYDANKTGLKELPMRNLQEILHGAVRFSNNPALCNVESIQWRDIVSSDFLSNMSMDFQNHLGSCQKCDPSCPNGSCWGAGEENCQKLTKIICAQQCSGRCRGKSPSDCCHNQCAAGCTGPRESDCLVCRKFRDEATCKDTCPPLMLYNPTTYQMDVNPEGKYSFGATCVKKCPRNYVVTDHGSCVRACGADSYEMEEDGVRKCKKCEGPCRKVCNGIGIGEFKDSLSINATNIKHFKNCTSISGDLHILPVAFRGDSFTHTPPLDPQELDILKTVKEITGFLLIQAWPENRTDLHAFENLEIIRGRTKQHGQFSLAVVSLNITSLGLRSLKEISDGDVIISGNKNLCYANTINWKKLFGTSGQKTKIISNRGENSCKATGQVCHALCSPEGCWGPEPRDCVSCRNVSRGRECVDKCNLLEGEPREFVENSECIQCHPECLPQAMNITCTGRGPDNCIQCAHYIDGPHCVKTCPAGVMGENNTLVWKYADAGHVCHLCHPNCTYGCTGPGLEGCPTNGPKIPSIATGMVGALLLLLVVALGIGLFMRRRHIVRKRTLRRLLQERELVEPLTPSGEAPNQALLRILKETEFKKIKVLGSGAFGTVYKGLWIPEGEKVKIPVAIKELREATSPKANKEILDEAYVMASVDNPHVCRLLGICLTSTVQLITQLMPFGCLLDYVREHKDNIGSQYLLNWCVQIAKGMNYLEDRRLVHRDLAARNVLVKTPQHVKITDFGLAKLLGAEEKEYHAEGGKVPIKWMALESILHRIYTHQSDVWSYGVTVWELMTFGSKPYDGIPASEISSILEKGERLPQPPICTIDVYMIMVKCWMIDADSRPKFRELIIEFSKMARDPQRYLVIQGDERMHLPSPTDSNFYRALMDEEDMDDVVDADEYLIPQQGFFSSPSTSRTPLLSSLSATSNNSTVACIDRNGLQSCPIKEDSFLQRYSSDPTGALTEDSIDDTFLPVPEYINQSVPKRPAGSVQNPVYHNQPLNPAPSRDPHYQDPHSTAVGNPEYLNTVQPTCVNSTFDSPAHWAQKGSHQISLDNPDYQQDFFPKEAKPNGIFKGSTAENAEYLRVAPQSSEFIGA
SMILES,IC50 [1] [µM],IC50 [2] [µM],IC50 [3] [µM],IC50 [4] [µM],IC50 [6] [µM],IC50 [7] [µM],"cytotoxic activity in words (SAR study) [5, 13]",selectivity EGFR over VEGFR-2 [4],also measured
"O=C(CCl)Sc1nc2ccccc2c(=O)n1-c1ccccc1 [Compound 1, S-(4-Oxo-3-phenyl-3,4-dihydroquinazolin-2-yl) 2-chloroethanethioate]",19.6 ± 1.4,10.6 ± 0.9,75.4 ± 3.8,25.5 ± 1.2,70.2 ± 2.55,13.2 ± 1.1,–,–,cytotoxic activity in words (SAR study) [5]: Moderate activity
"Cc1occ(Sc2nc3ccccc3c(=O)n2-c2ccccc2)c1C1=NN(C(N)=S)C(c2ccc(Cl)cc2)C1 (centres unmarked) [Compound 8a, 5-(4-Chlorophenyl)-3-{2-methyl-4-[(4-oxo-3-phenyl-3,4-dihydroquinazolin-2-yl)thio]furan-3-yl}-4,5-dihydro-1H-pyrazole-1-carbothioamide]",57.1 ± 3.3,8.29 ± 0.6,63.2 ± 3.3,8.53 ± 0.25,46.2 ± 1.2,9.68 ± 0.8,Excellent activity,–,–
"Cc1occ(Sc2nc3ccccc3c(=O)n2-c2ccccc2)c1C1=NN(C(=S)N=Cc2ccc(C=O)s2)C(c2ccc(F)cc2)C1 (centres unmarked) [Compound 10, 5-(4-Fluorophenyl)-N-[(5-formylthiophen-2-yl)methylene]-3-(2-methyl-4-{[4-oxo-3-phenyl-3,4-dihydroquinazolin-2-yl)thio]furan-3-yl}-4,5-dihydro-1H-pyrazole-1-carbothioamide]",11.6 ± 0.9,6.49 ± 0.4,35.2 ± 2.2,0.51 ± 0.04,39.4 ± 1.35,8.71 ± 0.7,Excellent activity,substantially more selective for EGFR than VEGFR-2,–
"Cc1occ(Sc2nc3ccccc3c(=O)n2-c2ccccc2)c1C1=NNC(c2ccc(Cl)cc2)C1 (centres unmarked) [Compound 7, 2-{{{4-[5-(4-Chlorophenyl)-4,5-dihydro-1H-pyrazol-3-yl]-5-methylfuran-3-yl}thio}}-3-phenylquinazolin-4(3H)-one]",48.9 ± 2.6,45.8 ± 2.5,> 100,–,–,27.9 ± 1.9,weak activity,–,–
"Cc1occ(Sc2nc3ccccc3c(=O)n2-c2ccccc2)c1C1CC(c2ccco2)Nc2ccccc2N1 (centres unmarked) [Compound 6b, 2-((4-(4-(Furan-2-yl)-2,3,4,5-tetrahydro-1H-benzo[b][1,4]diazepin-2-yl)-5-methylfuran-3-yl)thio)-3-phenylquinazolin-4(3H)-one]",7.97 ± 0.5,3.91 ± 0.2,41.3 ± 2.5,0.19 ± 0.03,31.6 ± 1.48,5.8 ± 0.4,Excellent activity,substantially more selective for EGFR than VEGFR-2,"Apoptosis Early ([8]; MCF-7, 3.91 μM, 24 h): 8.92%; Apoptosis Late ([8]; MCF-7, 3.91 μM, 24 h): 15.39%; Apoptosis Total ([8]; MCF-7, 3.91 μM, 24 h): 29.76; Necrosis ([8]; MCF-7, 3.91 μM, 24 h): 5.45%; apoptosis in MCF-7 cells as stated in abstract and conclusion ([8]; MCF-7, flow cytometry): 35.29%; Bax [9]: 241.60 pg/mL and 241.6 ± 1.33 pg/mL; Bax/Bcl-2 [9]: 85.67; rise in Bax levels versus untreated control [9]: 6.3 fold; P53 [10]: 860.55 ± 2.47 pg/mL; increase of p53 protein versus control [10]: 7.2 times; %G0-G1 [11]: 46.68%; %G2/M [11]: 35.29%; %S [11]: 18.03%; Bcl-2 [12]: 2.82 ng/mL and 2.82 ± 0.11 ng/mL; Bcl-2 protein downregulated versus control [12]: 2.6 times"
